EC50 data for one compound are collected here from PMC12677633, “Thermosensory TRPV Heterotetramers Drive Seasonal Polyphenism: Molecular Basis of CcIav/CcNan‐PKCα‐AKH/AKHR Signaling in Pear Psyllid Morph Transition” (Advanced Science, 2025).

Molecules are shown by their SMILES.

Holding throughout (test): Fluo-4 AM calcium flux in HEK293T cells
(A change in cytosolic calcium serves as a functional read-out for many receptors and channels.)

The test system of test [1] is T1, CcIav/CcNan heterotetramer.
T1 construct: gene iav; full-length ORFs co-expressed in HEK293T cells from pcDNA3.1-mCherry-P2A; 2:2 heterotetramer
The test is classed as cell-based, Cacopsylla chinensis. The settings on record: agonist; 2:2 CcIav/CcNan.

Test [2] has as its system T2, HaIav/HaNan heterotetramer.
T2 construct: gene iav; ORFs co-expressed in HEK293T cells; 2:2 heterotetramer
It counts as cell-based, Harmonia axyridis. The settings on record: agonist; 2:2 molar ratio Iav/Nan.

Test [3] relates to T3, DcIav/DcNan heterotetramer.
T3 construct: gene iav; ORFs co-expressed in HEK293T cells; 2:2 heterotetramer
It counts as cell-based, Diaphorina citri. The conditions noted are these: agonist; 2:2 molar ratio Iav/Nan.

Test [4] has as its target T4, BdIav/BdNan heterotetramer (Bactrocera dorsalis, UniProt A0A8N4L2W2+A0ABM3JT49).
T4 construct: gene LOC105228865; ORFs co-expressed in HEK293T cells; 2:2 heterotetramer
T4 sequence (A0ABM3JT49 1-1159): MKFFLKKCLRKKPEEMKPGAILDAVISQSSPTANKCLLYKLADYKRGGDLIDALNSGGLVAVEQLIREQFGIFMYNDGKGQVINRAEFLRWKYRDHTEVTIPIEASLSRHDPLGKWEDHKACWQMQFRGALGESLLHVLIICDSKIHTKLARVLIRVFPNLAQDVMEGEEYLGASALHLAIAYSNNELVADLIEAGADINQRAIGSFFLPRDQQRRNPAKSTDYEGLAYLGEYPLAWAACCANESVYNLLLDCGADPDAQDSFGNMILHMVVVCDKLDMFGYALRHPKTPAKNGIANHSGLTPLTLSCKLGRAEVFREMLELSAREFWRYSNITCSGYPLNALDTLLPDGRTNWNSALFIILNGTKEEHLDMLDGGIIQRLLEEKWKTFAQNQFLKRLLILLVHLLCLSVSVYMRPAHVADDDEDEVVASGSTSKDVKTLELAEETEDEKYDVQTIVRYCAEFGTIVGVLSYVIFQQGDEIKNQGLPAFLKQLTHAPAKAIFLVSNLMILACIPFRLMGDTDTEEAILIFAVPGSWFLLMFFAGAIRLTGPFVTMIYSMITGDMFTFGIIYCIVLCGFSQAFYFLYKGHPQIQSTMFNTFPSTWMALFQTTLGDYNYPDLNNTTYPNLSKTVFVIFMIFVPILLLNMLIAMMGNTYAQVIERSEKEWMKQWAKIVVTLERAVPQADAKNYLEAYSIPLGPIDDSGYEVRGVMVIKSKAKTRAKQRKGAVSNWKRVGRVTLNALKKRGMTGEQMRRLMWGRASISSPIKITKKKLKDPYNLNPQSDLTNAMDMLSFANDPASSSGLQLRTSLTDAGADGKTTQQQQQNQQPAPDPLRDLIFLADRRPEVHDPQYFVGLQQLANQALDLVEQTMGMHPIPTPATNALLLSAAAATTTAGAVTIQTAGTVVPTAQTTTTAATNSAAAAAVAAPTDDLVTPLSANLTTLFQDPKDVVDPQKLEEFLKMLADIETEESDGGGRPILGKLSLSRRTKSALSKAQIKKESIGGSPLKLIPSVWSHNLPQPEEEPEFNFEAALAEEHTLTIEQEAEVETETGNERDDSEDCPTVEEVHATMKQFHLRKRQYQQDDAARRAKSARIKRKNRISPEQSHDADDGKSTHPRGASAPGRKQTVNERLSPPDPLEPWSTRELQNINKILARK
T4 sequence (A0A8N4L2W2 1-846): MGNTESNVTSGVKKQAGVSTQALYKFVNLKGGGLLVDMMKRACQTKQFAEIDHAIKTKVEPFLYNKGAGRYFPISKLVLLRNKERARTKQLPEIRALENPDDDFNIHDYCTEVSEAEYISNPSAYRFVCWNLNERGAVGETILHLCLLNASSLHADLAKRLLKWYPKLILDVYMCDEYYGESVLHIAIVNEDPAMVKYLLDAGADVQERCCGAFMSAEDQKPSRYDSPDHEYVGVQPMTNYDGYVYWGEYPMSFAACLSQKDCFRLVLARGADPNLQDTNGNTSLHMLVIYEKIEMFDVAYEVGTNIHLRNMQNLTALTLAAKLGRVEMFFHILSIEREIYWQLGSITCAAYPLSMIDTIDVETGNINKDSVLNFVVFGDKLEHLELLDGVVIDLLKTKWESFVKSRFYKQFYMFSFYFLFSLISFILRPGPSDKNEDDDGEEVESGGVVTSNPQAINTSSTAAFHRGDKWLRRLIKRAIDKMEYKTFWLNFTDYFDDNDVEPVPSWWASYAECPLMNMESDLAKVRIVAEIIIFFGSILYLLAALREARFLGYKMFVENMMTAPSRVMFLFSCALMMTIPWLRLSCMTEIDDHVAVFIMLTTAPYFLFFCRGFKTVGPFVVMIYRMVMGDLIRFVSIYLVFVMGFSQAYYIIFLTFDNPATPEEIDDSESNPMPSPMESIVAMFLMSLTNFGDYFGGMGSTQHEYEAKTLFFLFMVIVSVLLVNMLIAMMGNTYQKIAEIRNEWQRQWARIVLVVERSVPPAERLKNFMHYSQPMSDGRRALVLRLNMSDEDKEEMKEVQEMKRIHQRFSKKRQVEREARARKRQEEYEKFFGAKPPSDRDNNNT
The test is classed as cell-based.

The term EC50 denotes the concentration needed to bring the measured effect to its halfway point. `COc1cc(CNC(=O)CCCC/C=C/C(C)C)ccc1O` [capsaicin]: the EC50 in test [1] turned out to be 0.0224 µM; in test [2], 24.1 µM; in test [3] it was 57.8 µM; in test [4] it was 24.5 µM.
